Data published in patent publication US9662322B2 (TEVA PHARMACEUTICAL INDUSTRIES, LTD., priority 2014, dated 2017).

Tests used:
[1] = tested on: relapsing MS; conditions: cited from earlier work
[2] = tested on: subjects with relapsing remitting multiple sclerosis (RRMS); assay: ALLEGRO Phase III trial: MRI endpoints; format: in vivo, human
Procedure: MRI related secondary endpoints were the cumulative number of GdE lesions at months 12 and 24; and the cumulative number of new T2 lesions (relative to previous scan) at months 12 and 24; MRI exploratory endpoints included percent change of brain volume using SIENA.
Additional MRI methodological details are as follows: In all patients, MRI scans were performed at 0, 12, and 24 months. Before a site could enroll study participants they were required to image a volunteer patient with definite MS twice with repositioning according to a strict study imaging protocol using scanners with a minimum field strength of 1.5 T. Fast/turbo spin echo (repetition time [TR]=2200-3500 ms, echo time [TE]=14-50/90-120 ms, echo train length=2-7, slice thickness=3 mm, and contiguous axial slices=44) sequences were used to obtain proton density and T2-weighted images. High resolution pre-contrast 3D T1-weighted sequences (TR=8-15 ms, TE=3-5 ms, inversion time=1.1 s, number of slices 160, slice thickness 1.2 mm, flip angle [FA]=10-15, orientation sagittal) were acquired for quantification of brain atrophy. Finally, T1-weighted images (1.5 T scanners: conventional spin echo sequence; TR=600-650 ms, TE=10-20 ms, slice thickness=3 mm, and contiguous axial slices=44; 3.0 T scanners: 3D sequence; TR=5-9 ms, TE=2-5 ms, FA=15, slice thickness=3 mm, and contiguous axial slices=44) were obtained 5 minutes after injection of 0.1 mmol/kg of gadolinium. A series of axial, coronal, and sagittal images was obtained to create an axial reference scan for subsequent careful repositioning of each patient at the follow-up session. Axial slices were positioned to run parallel to a line joining the most inferioanterior and inferioposterior parts of the corpus callosum.
Image quality was reviewed at the MRI-AC using predetermined criteria. The identification of GdE and T2-hyperintense lesions was done by consensus of two experienced observers. The number of total and new GdE lesions and new/enlarging T2-hyperintense lesions were counted. The identified lesions were then outlined by trained technicians using a semiautomated segmentation technique based on local thresholding (Jim 4.0; Xinapse System, Leicester, UK) and lesion volumes were calculated automatically. Percentage brain volume changes and cross-sectional normalized brain volumes were measured on […] T1-weighted images, with Structural Image Evaluation of Normalized Atrophy (SIENA) software and a cross-sectional method (SIENAX) (available from the FMRIB Software Library, Oxford University, Oxford, UK; http://www.fmrib.ox.ac.uk/analysis/research/siena/siena).
Analyses of the secondary MRI endpoints of the cumulative number of GdE and new/enlarging T2 lesions at 12 and 24 months involved a baseline-adjusted negative binomial regression with an “offset” employing the log of the relative exposure to adjust for early-terminated patients. The model included as covariates the number of enhancing lesions at baseline, and country or geographical region. In the case of new/enlarging T2 lesion analysis, the baseline T2 lesion volume was also added. The MRI secondary endpoints analyses were tested simultaneously with an overall type I error of 5%, using the Hochberg's step-up modification to Bonferroni's method to the two P-values obtained from the analyses of these two endpoints. The analysis of the brain atrophy endpoint involved a baseline-adjusted analysis of covariance (ANCOVA). The covariates were the number of GdE lesions at baseline and the country or region. The exploratory endpoints were all analyzed at a significance level of 5%.
Secondary endpoints of the ALLEGRO trial included disease activity as measured by MRI, including counts of Gadolinium enhancing T1 lesions and new-T2 hyperintense lesions. […] Conventional MRI scans for new T1 hypointense lesions, and brain volume using SIENA were performed at baseline, 12 and 24 months. […]

CCN(C(=O)c1c(O)c2c(Cl)cccc2n(C)c1=O)c1ccccc1 [Laquinimod, laquinimod]
Development of active MRI lesions [1]: reduce development of active MRI lesions | BA at month 12, Effect (reduction in brain atrophy) ([2]; baseline to 12 months, vs placebo): 53% reduction | Hypointense T1 volume, BL to M 24 ([2]; change baseline to month 24): 7% | Hypointense T1 volume month 0 ([2]; month 0 (baseline)): 2.65 | T2 volume month 0 ([2]; month 0 (baseline)): 7.27 | % BV change by previous medications: naïve ([2]; post-hoc): −0.82% | GdE lesion free M 12 ([2]; post-hoc): 69% | % BV change M 24, GdE = 0, Effect ([2]; post-hoc, vs placebo): 30% reduction | % BV change M 24, GdE > 0, Effect ([2]; post-hoc, vs placebo): 37% reduction | % BV change by previous medications: naïve, Effect ([2]; post-hoc, vs placebo): 38% reduction | % BV change by previous medications: not naive, Effect ([2]; post-hoc, vs placebo): 23% reduction | BA for pts with all scans: Change BL to M 12, Effect ([2]; post-hoc, vs placebo): 60% | BA for pts with all scans: Change BL to M 24, Effect ([2]; post-hoc, vs placebo): 57% | Cum # T1 GdE by previous medications: naïve, Effect ([2]; post-hoc, vs placebo): 42% reduction | Cum # T1 GdE by previous medications: not naive, Effect ([2]; post-hoc, vs placebo): 32% reduction | Cum New T2 by previous medications: naïve, Effect ([2]; post-hoc, vs placebo): 33% reduction | Cum New T2 by previous medications: not naive, Effect ([2]; post-hoc, vs placebo): 24% reduction | GdE counts M 12, Effect ([2]; post-hoc, vs placebo): 36% reduction | GdE counts M 24, Effect ([2]; post-hoc, vs placebo): 39% reduction | GdE lesion free M 12, Effect ([2]; post-hoc, vs placebo): 49% odds | GdE lesion free M 24, Effect ([2]; post-hoc, vs placebo): 72% odds | GdE volume M 12, Effect ([2]; post-hoc, vs placebo): 4.5% | GdE volume M 24, Effect ([2]; post-hoc, vs placebo): 4.7% | New-T1 Hypointense Lesions M 12, Effect ([2]; post-hoc, vs placebo): 27% reduction | New-T1 Hypointense Lesions M 24, Effect ([2]; post-hoc, vs placebo): 32% reduction | T1 Hypointense Lesion free M 12, Effect ([2]; post-hoc, vs placebo): 28% odds | T1 Hypointense Lesion free M 24, Effect ([2]; post-hoc, vs placebo): 47% odds | T1 hypointense by previous medications: naïve, Effect ([2]; post-hoc, vs placebo): 28% reduction | T1 hypointense by previous medications: not naive, Effect ([2]; post-hoc, vs placebo): 25% reduction | T2 lesion free M 12, Effect ([2]; post-hoc, vs placebo): 39% odds | T2 lesion free M 24, Effect ([2]; post-hoc, vs placebo): 40% odds | Average MTR of T2 visible lesions, difference ([2]; vs placebo): 0.330 | Cumulative new Hypointense T1 months 12 + 24, Effect ([2]; vs placebo): 27% reduction | Cumulative number of GdE lesions at months 12 and 24, Effect ([2]; vs placebo): 37 % reduction | Cumulative number of new/enlarging T2 lesions at 12 and 24 months, Effect ([2]; vs placebo): 30% reduction | Hypointense T1 volume month 12, Effect ([2]; vs placebo): ~1% | Hypointense T1 volume month 24, Effect ([2]; vs placebo): ~1% | T2 volume month 12, Effect ([2]; vs placebo): 5% | T2 volume month 24, Effect ([2]; vs placebo): 5% | Cumulative number of new/enlarging T2 lesions at 12 and 24 months, Effect ([2]; vs placebo, listed as laquinimod): 30 % reduction
